Each structure is given as a SMILES string.

The values below come from patent US9642831B2, “Substituted chromanes and method of use” (AbbVie S.á.r.l., priority 2014, dated 2017).

Data set [1] addresses T1, F508delCFTR (Homo sapiens, UniProt P13569, DEL508-508). Put plainly: Cell Surface Expression-Horse Radish Peroxidase (CSE-HRP) assay. It counts as cell-based. More on the design: expressed in transfected cells; host or cells: CFBE41o- human lung derived epithelial cell line, doxycycline-inducible. The settings on record: CFBE4lo-F508delCFTR-HRP cells; for EC50: 18-24 hours at 33° C., 8-point curve, highest concentration 20 μM, luminescence readout; for Emax: maximum % activity at any tested concentration, normalized to on-plate positive control (3 μM Example 1). The method, boiled down: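 Following 18-24 h compound exposure at 33° C. Expression was doxycycline-induced beforehand. % activity versus DMSO and a 3 μM corrector control gave maximum activity and EC50 from a variable-Hill sigmoidal fit.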

The test system of another data set is CYP3A4. Put plainly: CYP3A4 induction in primary human hepatocytes (mRNA, RT-PCR). The settings on record: test compounds 10 μM, 48 hours, % of response of positive control (Rifampin 10 μM).
Data set [2] addresses T1, F508delCFTR. Nature of the data set: Transepithelial Clamp Circuit (TECC-24) conductance assay on primary human bronchial epithelial cells (hBE-TECC). Format: cell-based. More on the design: cells isolated from CF patients with the homozygous mutation; endogenous in cells; host or cells: primary human bronchial epithelial (hBE) cells from F508del/F508del CF patients. As to conditions: for EC50: primary hBE cells from F508del/F508delCFTR patients, corrector 18-24 hours at 37° C., equivalent short circuit current (Ieq), with control potentiator 1 μM; for Emax: relative to positive control (3 μM Example 1 coupled with control potentiator = 100%), primary hBE F508del/F508del cells, read-out: Maximum % activity (%). An excerpt: Transepithelial Clamp Circuit on Human Bronchial Epithelial Cells Conductance Assay:
A cell based assay using the primary human bronchial epithelial cells (hBE) was used as a secondary assay to test novel F508delCFTR correctors for their activity on primary hBE cells with F508del/F508del CFTR mutation. The assay used a TECC-24 (Transepithelial Clamp Circuit for 24 wells) instrument that measures the functionality of the mutated channel by measuring the equivalent short circuit current (Ieq) generated by the polarized epithelial cells. The instrument works by measuring the transepithelial potential difference (Vt) and transepithelial resistance (Rt) in an open circuit format, and the Ieq is calculated by using Ohms law (Ieq=Vt/Rt). The assay was run in a 24-well format and all 24-wells were measured at the same time point giving a higher throughput for this assay.
Primary human bronchial epithelial (hBE) cells from F508del/F508delCFTR patients were expanded from 1×10^6 to 250×10^6 cells (Neuberger T, Burton B, Clark H and VanGoor F; Cystic Fibrosis, Methods in Mole Biol 741; eds. Amaral M D and Kunzelmann K, 2011). For this purpose, cells isolated from CF patients with the homozygous mutation were seeded onto 24 well Corning (Cat #3378) filter plates that were coated with 3T3 conditioned media and grown at an air-liquid interface for 35 days using an Ultroser® G supplemented differentiation media. Apical surface mucus was removed 72 hours before the experiment using 3 mM dithiothreitol (DTT) in phosphate buffered saline (PBS). The apical surface was washed again 24 hours before the experiment using PBS. The cells were incubated with the desired dose response of the corrector compounds 18-24 hours at 37° C., 5% CO2. The corrector compounds are only added on the basolateral side of the epithelial cells.
On the day of measuring the corrector activity on the TECC, the cells were switched into a bicarbonate and serum free F-12 Coon's medium and allowed to equilibrate for 90 minutes in a CO2 free incubator. At the time of measurement, the apical and basolateral sides of the filter were bathed with the F-12 Coon's modification media (with 20 mM 4-(2-hydroxyethyl)-1-piperazineethanesulfonic acid (HEPES), pH 7.4 (using 1 M tris(hydroxymethyl)aminormethane (Tris)), and the measurements were made at 36.5° C. Transepithelial voltage (Vt) and transepithelial resistance (Rt) were measured using a 24 channel transepithelial current clamp (TECC-24). Current responses to the sequential addition of benzamil (apical 6 μM addition; for inhibiting epithelial ENaC channel), forskolin (apical and basolateral 10 μM addition; for activating the CFTR channel), control potentiator (N-(3-carbamoyl-5,5,7,7-tetramethyl-4,7-dihydro-5H-thieno[2,3-c]pyran-2-yl)-1H-pyrazole-5-carboxamide; apical and basolateral 1 μM addition; for potentiating the CFTR channel) and bumetanide (basolateral 20 μM addition; for inhibiting the Na:2Cl:K co-transporter, an indirect measure of inhibiting the Cl-secretion driven by CFTR channel) were measured.
All plates contained negative controls (dimethyl sulfoxide, DMSO) which coupled with the control potentiator (N-(3-carbamoyl-5,5,7,7-tetramethyl-4,7-dihydro-5H-thieno[2,3-c]pyran-2-yl)-1H-pyrazole-5-carboxamide) sets the null response and positive controls (3 μM of 3-[(2R,4R)-4-({[1-(2,2-difluoro-1,3-benzodioxol-5-yl)cyclopropyl]carbonyl}amino)-7-methoxy-3,4-dihydro-2H-chromen-2-yl]benzoic acid) coupled with the control potentiator sets the 100% response to measure the correction of the mutated CFTR channel. The maximum percent activity is reported relative to the positive control value.
The % activity measured at each of the 6 test concentrations of the test compound was normalized to the on-plate positive control using the following formula: % activity=[(test compound response−DMSO response)/(positive control response−DMSO response)]*100 […]

T1 sequence (P13569 with tags, fused parts or gaps DEL508-508): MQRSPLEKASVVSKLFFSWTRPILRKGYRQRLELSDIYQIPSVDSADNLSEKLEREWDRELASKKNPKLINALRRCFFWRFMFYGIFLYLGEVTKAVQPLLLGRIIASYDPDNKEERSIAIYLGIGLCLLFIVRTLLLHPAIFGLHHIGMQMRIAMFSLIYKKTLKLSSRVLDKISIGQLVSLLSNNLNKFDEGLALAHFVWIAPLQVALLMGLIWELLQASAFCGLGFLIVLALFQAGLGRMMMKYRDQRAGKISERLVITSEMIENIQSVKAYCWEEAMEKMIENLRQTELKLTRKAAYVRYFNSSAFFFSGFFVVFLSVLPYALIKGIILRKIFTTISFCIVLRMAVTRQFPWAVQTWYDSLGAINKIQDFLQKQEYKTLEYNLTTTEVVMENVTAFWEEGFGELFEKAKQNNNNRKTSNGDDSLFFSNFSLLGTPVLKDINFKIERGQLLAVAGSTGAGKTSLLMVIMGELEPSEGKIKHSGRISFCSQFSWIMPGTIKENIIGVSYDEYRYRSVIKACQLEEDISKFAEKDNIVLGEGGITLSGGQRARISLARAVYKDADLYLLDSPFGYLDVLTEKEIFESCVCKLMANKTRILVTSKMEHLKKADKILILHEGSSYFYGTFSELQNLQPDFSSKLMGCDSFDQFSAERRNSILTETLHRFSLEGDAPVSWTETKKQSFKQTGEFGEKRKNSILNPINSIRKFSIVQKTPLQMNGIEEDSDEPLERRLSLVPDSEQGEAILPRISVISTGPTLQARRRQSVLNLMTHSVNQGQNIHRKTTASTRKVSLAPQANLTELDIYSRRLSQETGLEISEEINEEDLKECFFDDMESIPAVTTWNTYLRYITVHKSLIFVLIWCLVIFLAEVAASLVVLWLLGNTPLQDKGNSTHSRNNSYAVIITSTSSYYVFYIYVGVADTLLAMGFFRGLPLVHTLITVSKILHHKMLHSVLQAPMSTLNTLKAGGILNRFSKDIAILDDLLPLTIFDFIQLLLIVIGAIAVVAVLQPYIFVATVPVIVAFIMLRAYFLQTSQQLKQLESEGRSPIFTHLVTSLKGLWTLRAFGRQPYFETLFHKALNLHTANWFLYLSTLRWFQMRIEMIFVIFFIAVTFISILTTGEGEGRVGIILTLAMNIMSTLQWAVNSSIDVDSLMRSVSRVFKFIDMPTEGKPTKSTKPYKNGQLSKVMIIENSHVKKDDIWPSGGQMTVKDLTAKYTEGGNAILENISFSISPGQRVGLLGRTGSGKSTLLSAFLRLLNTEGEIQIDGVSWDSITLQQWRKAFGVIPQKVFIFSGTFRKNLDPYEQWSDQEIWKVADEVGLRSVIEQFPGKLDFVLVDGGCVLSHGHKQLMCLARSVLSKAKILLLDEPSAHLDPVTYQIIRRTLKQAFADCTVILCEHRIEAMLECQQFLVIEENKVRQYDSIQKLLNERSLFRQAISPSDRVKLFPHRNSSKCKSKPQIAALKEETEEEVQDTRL
Procedure for CYP3A4: Cryopreserved primary human hepatocytes were thawed and cultured overnight prior to treatment. […] Following the 48 hour treatment, hepatocytes were harvested for RNA isolation and reverse transcription, followed by CYP3A4 mRNA quantitation using RT-PCR (real time reverse transcript polymerase chain reaction).
Fold Induction=Fold of Treated/Fold of Vehicle Control % positive control=(Fold Induction of Treated−1)/(Fold Induction of Prototypical Inducer−1)

For the compound `COc1ccc2c(n1)O[C@@H](c1cccc(C(=O)O)c1)C[C@H]2NC(=O)C1(c2ccc3c(c2)OC(F)(F)O3)CC1` (racemic) [Example 28, rac-3-[(2R,4R)-4-({[1-(2,2-difluoro-1,3-benzodioxol-5-yl)cyclopropyl]carbonyl}amino)-7-methoxy-3,4-dihydro-2H-pyrano[2,3-b]pyridin-2-yl]benzoic acid], at F508delCFTR [1], a half-maximal effect (EC50) was put at 3240 nM and the Emax was 98%. Moreover, the “CYP3A4 Hepatocytes mRNA % of positive control” value (from here on “CYP3A4 Hepatocytes mRNA %”) with CYP3A4 is recorded as 9.41%. For the same compound, at F508delCFTR [2], the EC50 came out at 3400 nM and the Emax came out at 51%.

On to `COc1ccc2c(c1)O[C@@H](c1cccc(C(=O)O)c1)C[C@H]2NC(=O)C1(c2ccc3c(c2)OC(F)(F)O3)CC1` [Example 1, 3-[(2R,4R)-4-({[1-(2,2-difluoro-1,3-benzodioxol-5-yl)cyclopropyl]carbonyl}amino)-7-methoxy-3,4-dihydro-2H-chromen-2-yl]benzoic acid], for which, at F508delCFTR [1], the EC50 is 280 nM and the Emax turned out to be 102%. The “CYP3A4 Hepatocytes mRNA %” value in the data set on CYP3A4 was found to be 14%. For the same compound, on F508delCFTR [2], the EC50 stood at 290 nM and the Emax is 95%.

In the case of `COc1ccc2c(c1)O[C@@H](c1ccc(OC)c(OC)c1)C[C@H]2NC(=O)C1(c2ccc3c(c2)OC(F)(F)O3)CC1` [Example 3, 1-(2,2-difluoro-1,3-benzodioxol-5-yl)-N-[(2R,4R)-2-(3,4-dimethoxyphenyl)-7-methoxy-3,4-dihydro-2H-chromen-4-yl]cyclopropanecarboxamide], at F508delCFTR [1], the EC50 was 390 nM and the Emax stood at 135%. The “CYP3A4 Hepatocytes mRNA %” value in the data set with CYP3A4 stood at 49.3%.

In the case of `O=C(O)c1cccc([C@H]2C[C@@H](NC(=O)C3(c4ccc5c(c4)OC(F)(F)O5)CC3)c3ccccc3O2)c1` [Example 9, 3-[(2R,4R)-4-({[1-(2,2-difluoro-1,3-benzodioxol-5-yl)cyclopropyl]carbonyl}amino)-3,4-dihydro-2H-chromen-2-yl]benzoic acid], at F508delCFTR [1], the EC50 is 420 nM and the Emax stood at 84%. For the same compound, in the data set on CYP3A4, the “CYP3A4 Hepatocytes mRNA %” value was 16.1%. On F508delCFTR [2], the EC50 came out at 160 nM and the Emax amounted to 92%.

Consider `Cc1ccc2c(c1)[C@H](NC(=O)C1(c3ccc4c(c3)OC(F)(F)O4)CC1)C[C@H](c1cccc(C(=O)O)c1)O2` [Example 14, 3-[(2R,4R)-4-({[1-(2,2-difluoro-1,3-benzodioxol-5-yl)cyclopropyl]carbonyl}amino)-6-methyl-3,4-dihydro-2H-chromen-2-yl]benzoic acid], for which, at F508delCFTR [1], the midpoint of the response, the EC50, lay at 850 nM and the Emax amounted to 78%. Also, the “CYP3A4 Hepatocytes mRNA %” value with CYP3A4 is listed as 3.54%.

As for `COc1ccc2c(c1)[C@H](NC(=O)C1(c3ccc4c(c3)OC(F)(F)O4)CC1)C[C@H](c1cccc(C(=O)O)c1)O2` [Example 19, 3-[(2R,4R)-4-({[1-(2,2-difluoro-1,3-benzodioxol-5-yl)cyclopropyl]carbonyl}amino)-6-methoxy-3,4-dihydro-2H-chromen-2-yl]benzoic acid], on F508delCFTR [1], a half-maximal response (EC50) required 630 nM and the Emax was 103%. Also, the “CYP3A4 Hepatocytes mRNA %” value with CYP3A4 stood at 9.38%. On F508delCFTR [2], the EC50 was 210 nM and the Emax worked out at 111%.

At F508delCFTR [1], `O=C(O)c1cccc([C@H]2C[C@@H](NC(=O)C3(c4ccc5c(c4)OC(F)(F)O5)CC3)c3ccc(C(F)(F)F)cc3O2)c1` [Example 108, 3-[(2R,4R)-4-({[1-(2,2-difluoro-1,3-benzodioxol-5-yl)cyclopropyl]carbonyl}amino)-7-(trifluoromethyl)-3,4-dihydro-2H-chromen-2-yl]benzoic acid] gave an EC50 of 340 nM and an Emax of 115%. Further, the “CYP3A4 Hepatocytes mRNA %” value in the data set with CYP3A4 came to 39.6%. Moreover, at F508delCFTR [2], the EC50 is 86 nM and the Emax came out at 96%.

On F508delCFTR [1], `O=C(O)C1CCCC([C@H]2C[C@@H](NC(=O)C3(c4ccc5c(c4)OC(F)(F)O5)CC3)c3ccc(C(F)(F)F)cc3O2)C1` (stereo partly drawn) [Example 109, 3-[(2R,4R)-4-({[1-(2,2-difluoro-1,3-benzodioxol-5-yl)cyclopropyl]carbonyl}amino)-7-(trifluoromethyl)-3,4-dihydro-2H-chromen-2-yl]cyclohexanecarboxylic acid] returned an EC50 of 450 nM and an Emax of 94%. For the same compound, the “CYP3A4 Hepatocytes mRNA %” value in the data set on CYP3A4 is reported as 42.2%. Further, at F508delCFTR [2], the EC50 amounted to 55 nM and the Emax came to 70%.

At F508delCFTR [1], `COc1ccc2c(c1)O[C@@H](c1ccc(C(=O)O)cc1)C[C@H]2NC(=O)C1(c2ccc3c(c2)OC(F)(F)O3)CC1` [Example 111, 4-[(2R,4R)-4-({[1-(2,2-difluoro-1,3-benzodioxol-5-yl)cyclopropyl]carbonyl}amino)-7-methoxy-3,4-dihydro-2H-chromen-2-yl]benzoic acid] came in with an EC50 of 44 nM and an Emax of 113%. The “CYP3A4 Hepatocytes mRNA %” value in the data set on CYP3A4 is recorded as −0.105%. Moreover, at F508delCFTR [2], the EC50 stood at 5 nM and the Emax is 90%.

In the case of `O=C(O)c1ccc([C@H]2C[C@@H](NC(=O)C3(c4ccc5c(c4)OC(F)(F)O5)CC3)c3ccc(OC(F)F)cc3O2)cc1` [Example 122, 4-[(2R,4R)-4-({[1-(2,2-difluoro-1,3-benzodioxol-5-yl)cyclopropyl]carbonyl}amino)-7-(difluoromethoxy)-3,4-dihydro-2H-chromen-2-yl]benzoic acid], the EC50 on F508delCFTR [1] was 26 nM; on F508delCFTR [2], 4 nM. In addition, the Emax was 122% on F508delCFTR [1] and 87% at F508delCFTR [2]. Also, the “CYP3A4 Hepatocytes mRNA %” value in the data set on CYP3A4 was found to be 10.6%.

For the compound `COc1ccc2c(c1)O[C@@H](c1ccc(C(=O)O)cc1F)C[C@H]2NC(=O)C1(c2ccc3c(c2)OC(F)(F)O3)CC1` [Example 146, 4-[(2R,4R)-4-({[1-(2,2-difluoro-1,3-benzodioxol-5-yl)cyclopropyl]carbonyl}amino)-7-methoxy-3,4-dihydro-2H-chromen-2-yl]-3-fluorobenzoic acid], the EC50 on F508delCFTR [1] was 30 nM; at F508delCFTR [2], 4 nM. Moreover, the figures for the Emax at F508delCFTR [1] and on F508delCFTR [2] were 129% and 98%, respectively. The “CYP3A4 Hepatocytes mRNA %” value in the data set with CYP3A4 was 11.6%.

Usually EC50 stands for the concentration needed to bring the measured effect to its halfway point.
